Assay results: PubChem BioAssay (NCI)
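Cells were grown in 96-well plates and exposed to each compound for 48 hours at five concentrations; endpoints were interpolated linearly between bracketing concentrations, or set to the highest concentration if not reached. The concentration for full growth arrest is given as TGI.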

Columns and labels:
Test in all cases: NCI anticancer screen, dose series, 48 h
786-0 renal = test system: 786-0 renal
A498 renal = test system: A498 renal
A549 NSCLC = test system: A549 NSCLC
ACHN renal = test system: ACHN renal
BT-549 breast = test system: BT-549 breast
CAKI-1 renal = test system: CAKI-1 renal
CCRF-CEM leukemia = test system: CCRF-CEM leukemia
COLO 205 colon = test system: COLO 205 colon
DU-145 prostate = test system: DU-145 prostate
EKVX NSCLC = test system: EKVX NSCLC
HCC-2998 colon = test system: HCC-2998 colon
HCT-116 colon = test system: HCT-116 colon
HCT-15 colon = test system: HCT-15 colon
HL-60(TB) leukemia = test system: HL-60(TB) leukemia
HOP-62 NSCLC = test system: HOP-62 NSCLC
HOP-92 NSCLC = test system: HOP-92 NSCLC
HS 578T breast = test system: HS 578T breast
HT29 colon = test system: HT29 colon
IGROV1 ovarian = test system: IGROV1 ovarian
K-562 leukemia = test system: K-562 leukemia
KM12 colon = test system: KM12 colon
LOX IMVI melanoma = test system: LOX IMVI melanoma
M14 melanoma = test system: M14 melanoma
MALME-3M melanoma = test system: MALME-3M melanoma
MCF7 breast = test system: MCF7 breast
MDA-MB-231 breast = test system: MDA-MB-231 breast
MDA-MB-435 = test system: MDA-MB-435
MDA-N = test system: MDA-N
MOLT-4 leukemia = test system: MOLT-4 leukemia
NCI-H226 lung = test system: NCI-H226 lung
NCI-H23 lung = test system: NCI-H23 lung
NCI-H460 lung = test system: NCI-H460 lung
NCI-H522 lung = test system: NCI-H522 lung
NCI/ADR-RES ovarian = test system: NCI/ADR-RES ovarian
OVCAR-3 ovarian = test system: OVCAR-3 ovarian
OVCAR-4 ovarian = test system: OVCAR-4 ovarian
OVCAR-5 ovarian = test system: OVCAR-5 ovarian
OVCAR-8 ovarian = test system: OVCAR-8 ovarian
PC-3 prostate = test system: PC-3 prostate
RPMI-8226 leukemia = test system: RPMI-8226 leukemia
RXF 393 renal = test system: RXF 393 renal
SF-268 CNS = test system: SF-268 CNS
SF-295 CNS = test system: SF-295 CNS
SF-539 CNS = test system: SF-539 CNS
SK-MEL-2 melanoma = test system: SK-MEL-2 melanoma
SK-MEL-28 melanoma = test system: SK-MEL-28 melanoma
SK-MEL-5 melanoma = test system: SK-MEL-5 melanoma
SK-OV-3 ovarian = test system: SK-OV-3 ovarian
SN12C renal = test system: SN12C renal
SNB-19 CNS = test system: SNB-19 CNS
SNB-75 CNS = test system: SNB-75 CNS
SW-620 colon = test system: SW-620 colon
T-47D breast = test system: T-47D breast
TK-10 renal = test system: TK-10 renal
U251 CNS = test system: U251 CNS
UACC-257 melanoma = test system: UACC-257 melanoma
UACC-62 melanoma = test system: UACC-62 melanoma
UO-31 renal = test system: UO-31 renal

O[C@@]1(c2cccs2)c2cccc(Cl)c2[C@](O)(c2cccs2)c2cccc(Cl)c21 showed a TGI (786-0 renal) of 32.5 µM, a TGI (A498 renal) of 25.8 µM and a TGI (A549 NSCLC) of 43.7 µM. For the same compound, the TGI (ACHN renal) was 39.5 µM, the TGI (BT-549 breast) was 48.1 µM and the TGI (CAKI-1 renal) was over 100 µM. The TGI (CCRF-CEM leukemia) was over 100 µM, the TGI (COLO 205 colon) was 38.6 µM and the TGI (DU-145 prostate) was 64.6 µM. The TGI (EKVX NSCLC) was 44.9 µM, the TGI (HCC-2998 colon) was 32.7 µM and the TGI (HCT-116 colon) was 27.4 µM. The TGI (HCT-15 colon) was 61.7 µM, the TGI (HL-60(TB) leukemia) was 46.3 µM and the TGI (HOP-62 NSCLC) was over 100 µM. It also gave a TGI (HOP-92 NSCLC) of over 100 µM, a TGI (HS 578T breast) of 49.2 µM and a TGI (HT29 colon) of 35.5 µM. It also gave a TGI (IGROV1 ovarian) of 33 µM, a TGI (K-562 leukemia) of over 100 µM and a TGI (KM12 colon) of 34 µM. It also gave a TGI (LOX IMVI melanoma) of 33.2 µM, a TGI (M14 melanoma) of 31.5 µM and a TGI (MALME-3M melanoma) of 37.2 µM. The TGI (MCF7 breast) was 37.2 µM, the TGI (MDA-MB-231 breast) was 71 µM and the TGI (MDA-MB-435) was 35 µM. For the same compound, the TGI (MDA-N) was 36.4 µM, the TGI (MOLT-4 leukemia) was 56.3 µM and the TGI (NCI-H226 lung) was 57.1 µM. It also gave a TGI (NCI-H23 lung) of 39.8 µM, a TGI (NCI-H460 lung) of 34.2 µM and a TGI (NCI-H522 lung) of 55.6 µM. It also gave a TGI (NCI/ADR-RES ovarian) of over 100 µM, a TGI (OVCAR-3 ovarian) of 37.1 µM and a TGI (OVCAR-4 ovarian) of 40.9 µM. It also gave a TGI (OVCAR-5 ovarian) of 37.6 µM, a TGI (OVCAR-8 ovarian) of over 100 µM and a TGI (PC-3 prostate) of 50.7 µM. It also gave a TGI (RPMI-8226 leukemia) of 66.2 µM, a TGI (RXF 393 renal) of 38.2 µM and a TGI (SF-268 CNS) of 66.8 µM. For the same compound, the TGI (SF-295 CNS) was 31.3 µM, the TGI (SF-539 CNS) was over 100 µM and the TGI (SK-MEL-2 melanoma) was 42.4 µM. It also gave a TGI (SK-MEL-28 melanoma) of 37.8 µM, a TGI (SK-MEL-5 melanoma) of 34.7 µM and a TGI (SK-OV-3 ovarian) of 74.2 µM. The TGI (SN12C renal) was 34.1 µM, the TGI (SNB-19 CNS) was 80.3 µM and the TGI (SNB-75 CNS) was over 100 µM. For the same compound, the TGI (SW-620 colon) was 44.8 µM, the TGI (T-47D breast) was over 100 µM and the TGI (TK-10 renal) was 99.4 µM. The TGI (U251 CNS) was 33.2 µM, the TGI (UACC-257 melanoma) was 30.3 µM and the TGI (UACC-62 melanoma) was 23.8 µM. The TGI (UO-31 renal) was over 100 µM.

Compound Cc1nc(Cl)c(Cl)c(Cl)n1 has a TGI (786-0 renal) of 1.47 µM, a TGI (A498 renal) of 4.81 µM and a TGI (A549 NSCLC) of 3.25 µM. The TGI (ACHN renal) was 1.1 µM, the TGI (BT-549 breast) was 0.482 µM and the TGI (CCRF-CEM leukemia) was 0.0333 µM. It also gave a TGI (COLO 205 colon) of 1.42 µM, a TGI (DU-145 prostate) of 9.24 µM and a TGI (EKVX NSCLC) of 1.17 µM. For the same compound, the TGI (HCC-2998 colon) was 7.04 µM, the TGI (HCT-116 colon) was 0.24 µM and the TGI (HCT-15 colon) was 1.96 µM. For the same compound, the TGI (HL-60(TB) leukemia) was 0.0553 µM, the TGI (HOP-62 NSCLC) was 0.974 µM and the TGI (HOP-92 NSCLC) was 0.849 µM. It also gave a TGI (HS 578T breast) of 4.49 µM, a TGI (HT29 colon) of 0.442 µM and a TGI (IGROV1 ovarian) of 0.344 µM. The TGI (K-562 leukemia) was 0.0358 µM, the TGI (KM12 colon) was 1 µM and the TGI (LOX IMVI melanoma) was 0.585 µM. For the same compound, the TGI (M14 melanoma) was 0.48 µM, the TGI (MALME-3M melanoma) was 0.573 µM and the TGI (MCF7 breast) was 1.91 µM. The TGI (MDA-MB-231 breast) was 0.656 µM, the TGI (MDA-MB-435) was 1.71 µM and the TGI (MDA-N) was 3.15 µM. The TGI (MOLT-4 leukemia) was under 0.025 µM, the TGI (NCI-H226 lung) was 6.04 µM and the TGI (NCI-H23 lung) was 2.1 µM. For the same compound, the TGI (NCI-H460 lung) was 6.33 µM, the TGI (NCI-H522 lung) was 3.88 µM and the TGI (NCI/ADR-RES ovarian) was 15.3 µM. It also gave a TGI (OVCAR-3 ovarian) of 0.281 µM, a TGI (OVCAR-4 ovarian) of 0.097 µM and a TGI (OVCAR-5 ovarian) of 3.03 µM. For the same compound, the TGI (OVCAR-8 ovarian) was 2 µM, the TGI (PC-3 prostate) was 0.988 µM and the TGI (RPMI-8226 leukemia) was 0.203 µM. The TGI (RXF 393 renal) was 1.85 µM, the TGI (SF-268 CNS) was 4.27 µM and the TGI (SF-295 CNS) was 3.58 µM. The TGI (SF-539 CNS) was 2.82 µM, the TGI (SK-MEL-2 melanoma) was 2.73 µM and the TGI (SK-MEL-28 melanoma) was 1.2 µM. The TGI (SK-MEL-5 melanoma) was 1.97 µM, the TGI (SK-OV-3 ovarian) was 7.53 µM and the TGI (SN12C renal) was 1.26 µM. It also gave a TGI (SNB-19 CNS) of 2.74 µM, a TGI (SNB-75 CNS) of 2.7 µM and a TGI (SW-620 colon) of 0.149 µM. It also gave a TGI (T-47D breast) of 7.71 µM, a TGI (TK-10 renal) of 3.51 µM and a TGI (U251 CNS) of 4.07 µM. It also gave a TGI (UACC-257 melanoma) of 1.62 µM, a TGI (UACC-62 melanoma) of 1.46 µM and a TGI (UO-31 renal) of 0.208 µM.
